In publication PMC6770581, “New Thalidomide-Resembling Dicarboximides Target ABC50 Protein and Show Antileukemic and Immunomodulatory Activities” (Biomolecules, 2019):

Assays:
[1] = test system: HUVEC (human umbilical vein endothelial cells); assay: MTT cytotoxicity assay, HUVEC; assay type: cell-based; settings: 48 h, mean ± SD
Description: (§1) Human umbilical vein endothelial cells (purchased from Life Technologies, Carlsbad, CA, USA) were cultured according to the manufacturer’s instructions in Medium 200 supplemented with Low Serum Growth Supplement. 1 × 10^4 cells were seeded on each well on a 96-well plate (Nunc, Roskilde, Denmark). The HeLa (human cervix carcinoma, cat. #93021013), CFPAC (human pancreatic adenocarcinoma, cat. #91112501), K562 (chronic myelogenous leukemia, cat. #89121407), HL-60 (acute myelogenous leukemia, cat. #98070106), and MOLT-4 (Human acute T lymphoblastic leukemia, cat. #85011413) cells were purchased from European Collection of Authenticated Cell Cultures (ECACC). They were cultured in an RPMI 1640 medium supplemented with antibiotics (streptomycin, penicillin) and 10% fetal calf serum (20% for HL60), in a 5% CO2-95% air atmosphere. 7 × 10^3 cells were seeded on each well on a 96-well plate (Nunc). 24 hours later the cells were exposed to the test compounds. The aliquots of stock solutions of the test compounds (freshly prepared in DMSO) were added to the cell cultures to yield final concentrations of 1, 10^−1, 10^−2, 10^−3, 10^−4, and 10^−5 mM. The concentration of DMSO in the cell culture medium was 1%. The IC50 value (the concentration of a test compound required to reduce the cell survival fraction to 50% of the control) was calculated from a dose-response curve and used as a measure of cellular sensitivity to a given treatment. The IC50 values are given as means (± standard deviation (SD)) from 2 independent experiments with 4 technical replicates. The cytotoxicity of all compounds was determined by the MTT (3-(4,5-dimethylthiazol-2-yl)-2,5-diphenyltetrazolium bromide) assay (Sigma, St. Louis, MO, USA). Briefly, after 24 h or 48 h of incubation with a given compound, the cells were treated with the MTT reagent and incubation was continued for 2 h. MTT-formazan crystals were dissolved in 20% SDS and 50% DMF at pH 4.7 and VIS light absorption was measured at 570 and 650 nm on a microplate reader FLUOstar Omega (BMG Labtech, Offenburg, Germany). As a control (100% viability), cells grown in the presence of 1% DMSO were used.

MOLT-4 cells = assay: MTT cytotoxicity assay, MOLT-4; assay type: cell-based; settings: Homo sapiens, 48 h, mean ± SD
Description: as §1

ABC50 [2] = target: T1, ABC50 (Homo sapiens, UniProt Q8NE71); assay: Streptavidin-agarose pull-down from K562 cell lysate with LC-MS-MS/MS and Western blot identification; assay type: binding; parameters: endogenous in cells; host or cells: K562 cell lysate
T1 sequence (Q8NE71 whole entry): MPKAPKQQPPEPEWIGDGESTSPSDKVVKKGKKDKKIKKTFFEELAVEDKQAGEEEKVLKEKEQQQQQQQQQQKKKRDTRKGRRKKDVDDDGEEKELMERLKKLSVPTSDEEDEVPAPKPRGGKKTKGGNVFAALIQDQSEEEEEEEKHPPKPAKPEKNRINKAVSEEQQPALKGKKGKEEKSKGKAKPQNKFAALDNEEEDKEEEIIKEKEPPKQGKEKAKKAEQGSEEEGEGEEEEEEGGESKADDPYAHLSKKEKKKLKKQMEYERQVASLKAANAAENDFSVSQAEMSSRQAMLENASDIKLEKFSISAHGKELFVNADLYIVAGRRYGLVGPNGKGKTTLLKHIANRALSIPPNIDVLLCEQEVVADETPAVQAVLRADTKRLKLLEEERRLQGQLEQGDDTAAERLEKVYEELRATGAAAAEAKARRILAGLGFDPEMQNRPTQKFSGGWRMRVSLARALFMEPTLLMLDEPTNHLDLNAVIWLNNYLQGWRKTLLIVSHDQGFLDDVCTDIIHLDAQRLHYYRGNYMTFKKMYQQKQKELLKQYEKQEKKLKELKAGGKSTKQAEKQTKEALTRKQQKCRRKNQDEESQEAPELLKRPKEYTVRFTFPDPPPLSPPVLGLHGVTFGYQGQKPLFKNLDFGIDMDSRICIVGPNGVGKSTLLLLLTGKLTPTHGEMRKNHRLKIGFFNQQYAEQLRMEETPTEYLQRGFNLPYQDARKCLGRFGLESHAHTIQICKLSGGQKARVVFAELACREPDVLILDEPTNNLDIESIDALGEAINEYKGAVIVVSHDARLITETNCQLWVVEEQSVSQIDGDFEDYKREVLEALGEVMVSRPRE
Description: (§2) Cells were lysed in TBS buffer containing 1% Triton X-100 and Complete® protease inhibitor cocktail (Roche) for 15 min on ice with occasional vortexing. Insoluble material was centrifuged (12,000 rpm, 15 min, 4 °C) and supernatants were collected. Total protein concentration was measured with DC Protein Assay (Bio-Rad, Hercules, CA, USA). Cell lysates containing 30 µg of total protein were mixed with Laemli buffer supplemented with SDS and β-mercaptoethanol, denatured (10 min, 95 °C) and subjected to sodium dodecyl sulfate polyacrylamide gel electrophoresis (SDS-PAGE) electrophoresis (4% stacking and 10% resolving gels). Resolved proteins were electrotransferred (semi-dry, 90 min, 1.5 mA/cm^2) to a 0.45 µm nitrocellulose membrane (Thermo Scientific, Waltham, MA, USA). Membranes were blocked for 2 hours in TBST buffer (20 mM Tris-HCl pH 7.5, 0.9% NaCl, 0.1% Tween 20) containing 5% BSA (BioShop, Burlington, ON, Canada) and probed with primary antibodies (overnight at 4 °C) diluted in TBST buffer with 0.5% BSA. Tubulin served as a loading control for IB experiments. Anti IKZF3 (rabbit monoclonal, dilution 1:500), anti IKZF1 (rabbit polyclonal, dilution 1:500) were from Abcam. Anti IRF4 (rabbit polyclonal, dilution 1:500) were from Cell Signaling Technology. Anti α-tubulin (mouse monoclonal IgG, 1:1000) was from Sigma Aldrich. Anti ABC50 antibodies (mouse monoclonal ABC5H06, dilution 1:100) was from Abcam. After extensive washing with TBST buffer, membranes were probed with secondary goat anti-rabbit or goat anti-mouse HRP-conjugated IgG (1:5000 in TBST, Santa Cruz Biotech, Dallas, TX, USA) for 45 min at room temperature. Membranes were washed in TBST buffer and the chemiluminescent signal was developed with ECL Plus Western Blotting Substrate (Thermo Scientific) and visualized in Syngene G:Box detection system. Protein bands intensities were analysed using Image Quant (version 5.0, GE Healthcare Life Sciences, Pittsburgh, PA, USA).
300 nmoles of biotinylated 6b was added to 0.6 mL of the high capacity streptavidin agarose resin (Thermo Scientific, Waltham, MA, USA) equilibrated in 50% DMSO and incubated for 2 h (room temperature, gently mixing, total volume 0.7 mL). The K562 cell lysate was prepared in the buffer containing 0.5% NP-40 and supplemented with protease inhibitors coctail (Roche). Next, the beads with immobilized 6b were added to the K562 cell lysate (9 mg of total protein) and incubated for 2 h at 4 °C with gently mixing. As a control, K562 cell lysate incubated with the streptavidin agarose beads was used. After incubation the beads were centrifuged (2000 rpm, 2 min, 4 °C) and washed 6 times with 5 mL of lysis buffer. After the last wash, the beads were resuspended in Laemli buffer and denatured 10 min at 95 °C. Released proteins (40 µL/well) were separated by SDS-PAGE (4% stacking, 8% resolving gel) and silver stained with Pierce Silver Stain Kit (Thermo Scientific, Waltham, MA, USA). Bands of interest were cut out of the gel and digested with trypsin. Tryptic peptides were separated by liquid chromatography (LC) and analyzed by LC-MS-MS/MS with Orbitrap mass spectrometer (Thermo). The sequences of the MS/MS spectra were identified by correlation with the human protein sequence database (Sprot 2016_11, H.) using MASCOT software (version 2.6.2, Matrix Science Inc., Boston, MA, USA) (http://www.matrixscience.com/). The significance threshold was p < 0.05 and ions score or expect cut-off was 22.

HeLa cells = assay: MTT cytotoxicity assay, HeLa; assay type: cell-based; settings: Homo sapiens, 48 h, mean ± SD
Description: as §1

K562 cells [3] = assay: MTT cytotoxicity assay, K562; assay type: cell-based; settings: Homo sapiens, 48 h, mean ± SD
Description: as §1

ABC50 [4] = target: T1, ABC50; assay: ABC50 level by Western blotting in HeLa cells (PROTAC approach); assay type: cell-based; parameters: endogenous in cells; settings: 96 h, 7 (30 µM), 8 (15 µM), 9 (30 µM)
Description: as §2, with “Membranes were washed in TBST buffer and the chemiluminescent signal was developed with ECL Plus Western Blotting Substrate (Thermo Scientific) and visualized in Syngene G:Box detection system.” left out
(§3) ABC50 was identified as the target of the test dicarboximides in the pull-down experiments. […] It must be noted that 7, 8 and 9 were evaluated as mixtures of enantiomers. K562 and HeLa cells were incubated with chimeras 7 (30 µM), 8 (15 µM) and 9 (30 µM) for 96 h and subsequently the level of ABC50 was determined by Western blotting. […]

ABC50 [5] = target: T1, ABC50; assay: ABC50 level by Western blotting in K562 cells (PROTAC approach); assay type: cell-based; parameters: endogenous in cells; host or cells: K562 cell lysate; settings: K562, 96 h, 7 (30 µM), 8 (15 µM), 9 (30 µM)
Description: as §2, with “Membranes were washed in TBST buffer and the chemiluminescent signal was developed with ECL Plus Western Blotting Substrate (Thermo Scientific) and visualized in Syngene G:Box detection system.” left out
as §3

K562 cells [6] = assay: Annexin V/PI or 7-AAD flow cytometry of apoptosis, K562; assay type: cell-based, human; settings: K562, 5× IC50 (3 10 µM, 6 5 µM, 5 5 µM), staurosporine 1 µM; different incubation times for 3, 6 and 5
Description: The phosphatidylserine on the extracellular side of cell membranes was quantified using an FITC Annexin V Apoptosis Detection Kit I (BD Pharmingen, San Diego, CA, USA) according to the manufacturer’s instruction. 10^6 cells were seeded on a 6-well plate (Nunc). […] The control cells were exposed to 1% DMSO or 1μM staurosporine. After treatment the cells were centrifuged at 700 rpm (120× g) for 5 min, washed twice with cold PBS and then resuspended in 1x binding buffer to a density of 10^6 cells/ml. 100 µL of the resuspended cells was stained in the dark with 5 μl of Annexin V-fluoroscein isothiocyanate (FITC) solution and 10 µL propidium iodide (PI) solution for 15 min at room temperature. The samples were then diluted with 400 μL of a binding buffer and within 1 h analyzed with a flow cytometer (BD FACSCalibur^TM, BD Biosciences, San Jose, CA, USA). After treatment, four populations of cells were assessed: (1) viable (neither apoptotic nor necrotic, Annexin V-FITC and PI negative), (2) apoptotic (Annexin V-FITC positive and PI negative), (3) late apoptotic (Annexin V-FITC and PI positive), and (4) necrotic (Annexin V-FITC negative and PI positive).
0.15 × 10^6 cells/ml were seeded on a 6-well plate (Nunclon, Thermo Fisher Scientific, Waltham, MA, USA). Following 24 h preincubation the cells were treated with either the compound or 1% DMSO (control) for 24 or 48 h. After indicated time, the cells were washed with cold PBS (w/o Mg^2+, Ca^2+), stained with Annexin V (FITC Annexin V Apoptosis Detection Kit with 7-aminoactinomycin D (7-AAD), Biolegend, San Diego, CA, USA) according to manufacturer instructions and analysed using BD FACSCalibur flow cytometer. Obtained Flow Cytometry Standard files were analyzed using BD FACSDiva Software (FACSDiva Version 6.1.3, Becton Dickinson Biosciences, San Jose, CA, USA). The experiment was performed three times in at least two technical replicates.

| SMILES | IC50 [1] [µM] | IC50 (MOLT-4 cells) [µM] | Description of protein identified, band 1 (ABC50 [2]; K562 lysate pull-down, SDS-PAGE band No. 1, LC-MS-MS/MS) | Description of protein identified, band 2 (ABC50 [2]; K562 lysate pull-down, SDS-PAGE band No. 2, LC-MS-MS/MS) | Description of protein identified, band 3 (ABC50 [2]; K562 lysate pull-down, SDS-PAGE band No. 3, LC-MS-MS/MS) | Description of protein identified, band 4 (ABC50 [2]; K562 lysate pull-down, SDS-PAGE band No. 4, LC-MS-MS/MS) | Description of protein identified, band 5 (ABC50 [2]; K562 lysate pull-down, SDS-PAGE band No. 5, LC-MS-MS/MS) | Description of protein identified, band 6 (ABC50 [2]; K562 lysate pull-down, SDS-PAGE band No. 6, LC-MS-MS/MS) | protein identified by mass spectrometry in pulled-down bands (ABC50 [2]; K562 lysate, immobilized on streptavidin-agarose, five out of six bands) | Western blot analysis of pull-down material for ABC50 (ABC50 [2]; K562 lysate, mouse monoclonal anti ABC50 antibodies) | IC50 (HeLa cells) [µM] | IC50 (K562 cells [3]) [µM] | level of ABC50 (Western blotting) (ABC50 [4]) | melting point [°C] | level of ABC50 (Western blotting) (ABC50 [5]) | apoptotic cells, early (LR) and late (UR) (K562 cells [6]) |
| --- | --- | --- | --- | --- | --- | --- | --- | --- | --- | --- | --- | --- | --- | --- | --- | --- |
| O=C(CCCCC1SCC2NC(=O)NC21)NCC(O)CN1C(=O)C2C(C1=O)C1(c3ccccc3)CC2(c2ccccc2)C(c2ccccc2)=C1c1ccccc1 (stereo not shown) [Compound 6b] | 3.8 ± 0.22 | 1.5 ± 0.06 | Talin-1 | ATP-binding cassette sub-family F member 1 (ABCF1 or ABC50) | ABC50 | ABC50 | ABC50 | ABC50 | ABC50 protein was identified and significantly enriched | confirmed the presence of ABC50 | 64 ± 10 | 7 ± 1.2 | – | – | – | – |
| CC12C(=O)C(C)(C(c3ccccc3)=C1c1ccccc1)C1C(=O)N(C3CCC(=O)NC3=O)C(=O)C12 (stereo not shown) [Compound 7, 4-(2,6-dioxopiperidin-3-yl)-1,7-dimethyl-8,9-diphenyl-4-azatricyclo[5.2.1.0^2,6]dec-8-ene-3,5,10-trione] | 200 | 150 | – | – | – | – | – | – | – | – | 180 | 170 | significantly downregulated | 217 to 218 | significantly reduced | – |
| CCC12C(=O)C(CC)(C(c3ccccc3)=C1c1ccccc1)C1C(=O)N(C3CCC(=O)NC3=O)C(=O)C12 (stereo not shown) [Compound 8, 4-(2,6-dioxopiperidin-3-yl)-1,7-diethyl-8,9-diphenyl-4-azatricyclo[5.2.1.0^2,6]dec-8-ene-3,5,10-trione] | 65 | 18 | – | – | – | – | – | – | – | – | > 200 | 25 | significantly downregulated | 232 to 234 | significantly reduced | – |
| O=C1CCC(N2C(=O)C3C(C2=O)C2(c4ccccc4)C(=O)C3(c3ccccc3)C(c3ccccc3)=C2c2ccccc2)C(=O)N1 (stereo not shown) [Compound 9, 4-(2,6-dioxopiperidin-3-yl)-1,7,8,9-tetraphenyl-4-azatricyclo[5.2.1.0^2,6]dec-8-ene-3,5,10-trione] | > 200 | > 200 | – | – | – | – | – | – | – | – | > 200 | > 200 | didn’t have such pronounced effect | 230 to 232 | significantly reduced | – |
| CN[C@@H]1C[C@H]2O[C@@](C)([C@@H]1OC)n1c3ccccc3c3c4c(c5c6ccccc6n2c5c31)C(=O)NC4 [staurosporine, reference compound] | – | – | – | – | – | – | – | – | – | – | – | – | – | – | – | about 25% |
